Legend:
Assay in all cases: relative viability (nuclei count vs DMSO), 5 days (fraction); higher = more cells survive
MK-2206 + Crizotinib = compound: NC1(c2ccc(-c3nc4ccn5c(=O)[nH]nc5c4cc3-c3ccccc3)cc2)CCC1 [MK-2206] + C[C@@H](Oc1cc(-c2cnn(C3CCNCC3)c2)cnc1N)c1c(Cl)ccc(F)c1Cl [Crizotinib] (partner 1 µM)
Procedure, shortened: (§1)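 Dosing by pin tool came one day after lung cancer cell lines were seeded in 1536-well plates, using either one drug or a fixed anchor-drug dose plus five library-drug doses (not always all listed) in √10 steps. After 5 days, nuclei were counted on 4× images. Relative viability is treated-well nuclei count divided by vehicle-well nuclei count, and values are medians of duplicate plates.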

Pictilisib + Palbociclib = compound: CS(=O)(=O)N1CCN(Cc2cc3nc(-c4cccc5[nH]ncc45)nc(N4CCOCC4)c3s2)CC1 [Pictilisib] + CC(=O)c1c(C)c2cnc(Nc3ccc(N4CCNCC4)cn3)nc2n(C2CCCC2)c1=O [Palbociclib] (partner 0.5 µM)
Procedure, shortened: as §1

Pictilisib + Olaparib = compound: CS(=O)(=O)N1CCN(Cc2cc3nc(-c4cccc5[nH]ncc45)nc(N4CCOCC4)c3s2)CC1 [Pictilisib] + O=C(c1cc(Cc2n[nH]c(=O)c3ccccc23)ccc1F)N1CCN(C(=O)C2CC2)CC1 [Olaparib] (partner 8 µM)
Procedure, shortened: as §1

Pictilisib + Phenformin = compound: CS(=O)(=O)N1CCN(Cc2cc3nc(-c4cccc5[nH]ncc45)nc(N4CCOCC4)c3s2)CC1 [Pictilisib] + N=C(N)NC(=N)NCCc1ccccc1 [Phenformin] (partner 250 µM)
Procedure, shortened: as §1

Pictilisib + Pemetrexed = compound: CS(=O)(=O)N1CCN(Cc2cc3nc(-c4cccc5[nH]ncc45)nc(N4CCOCC4)c3s2)CC1 [Pictilisib] + Nc1nc2[nH]cc(CCc3ccc(C(=O)N[C@@H](CCC(=O)O)C(=O)O)cc3)c2c(=O)[nH]1 [Pemetrexed] (partner 0.2 µM)
Procedure, shortened: as §1

Cell Line	relative viability (MK-2206 + Crizotinib; first compound 0.01 µM)	relative viability (MK-2206 + Crizotinib; first compound 0.03162 µM)	relative viability (MK-2206 + Crizotinib; first compound 1 µM)	relative viability (Pictilisib + Palbociclib; first compound 0.02 µM)	relative viability (Pictilisib + Palbociclib; first compound 0.06325 µM)	relative viability (Pictilisib + Palbociclib; first compound 0.6325 µM)	relative viability (Pictilisib + Palbociclib; first compound 2 µM)	relative viability (Pictilisib + Olaparib; first compound 0.02 µM)	relative viability (Pictilisib + Olaparib; first compound 0.06325 µM)	relative viability (Pictilisib + Olaparib; first compound 0.6325 µM)	relative viability (Pictilisib + Olaparib; first compound 2 µM)	relative viability (Pictilisib + Phenformin; first compound 0.02 µM)	relative viability (Pictilisib + Phenformin; first compound 0.06325 µM)	relative viability (Pictilisib + Phenformin; first compound 0.6325 µM)	relative viability (Pictilisib + Phenformin; first compound 2 µM)	relative viability (Pictilisib + Pemetrexed; first compound 0.02 µM)	relative viability (Pictilisib + Pemetrexed; first compound 0.06325 µM)	relative viability (Pictilisib + Pemetrexed; first compound 0.6325 µM)	relative viability (Pictilisib + Pemetrexed; first compound 2 µM)	relative viability (MK-2206 + Crizotinib; first compound 0.3162 µM)
EPLC-272H	0.951	0.928	1.01	0.348	0.298	0.317	0.243	0.773	0.731	0.36	0.241	0.284	0.323	0.23	0.197	0.297	0.342	0.231	0.185	
201T	1.02	1.07	1.01	0.332	0.377	0.332	0.284	0.844	0.815	0.811	0.604	0.476	0.443	0.409	0.3	0.301	0.352	0.289	0.276	1.03
NCI-H3122	0.261	0.278	0.263	0.181	0.194	0.176	0.139	0.603	0.659	0.595	0.329	0.402	0.4	0.394	0.284	0.189	0.196	0.192	0.172	0.218
NCI-H838	0.857	0.812	0.765	0.191	0.206	0.174	0.124	0.775	0.718	0.603	0.293	0.541	0.628	0.329	0.224	0.24	0.251	0.314	0.184	0.834
NCI-H1755	0.875	0.836	0.727	0.447	0.417	0.458	0.323	0.872	0.84	0.806	0.403	0.654	0.594	0.401	0.357	0.472	0.397	0.396	0.329	0.798
HCC-15	0.824	0.823	0.769	0.682	0.704	0.678	0.475	0.758	0.772	0.638	0.504	0.506	0.504	0.346	0.261	0.224	0.224	0.224	0.202	0.868
NCI-H2087	0.777	0.889	0.835	0.199	0.255	0.19	0.162	0.537	0.477	0.493	0.345	0.483	0.439	0.468	0.28	0.7	0.736	0.612	0.553	0.749
LCLC-103H	0.989	0.963	1.04	0.525	0.485	0.44	0.351	0.722	0.851	0.701	0.475	0.378	0.312	0.294	0.214	0.468	0.419	0.475	0.428	0.99
NCI-H1650	0.97	1.04	0.751	0.381	0.334	0.223	0.193	0.593	0.759	0.761	0.691	0.492	0.318	0.247	0.176	0.325	0.361	0.358	0.302	1.04
LK-2	0.211	0.236	0.211	0.588	0.673	0.354	0.259	0.523	0.588	0.485	0.304	0.468	0.379	0.176	0.143	0.247	0.281	0.116	0.14	0.229
ChaGo-K-1	1.08	1.11	1.14	0.942	0.954	0.844	0.72	0.44	0.381	0.5	0.332	0.438	0.529	0.42	0.33	0.265	0.268	0.231	0.237	0.961
HCC-78	0.348	0.33	0.286	0.566	0.481	0.403	0.361	0.727	0.548	0.529	0.351	0.587	0.705	0.427	0.312	0.894	0.911	0.861	0.893	0.289
NCI-H1666	0.965	1.12	0.892	0.606	0.713	0.668	0.607	0.751	0.762	0.813	0.756	0.576	0.615	0.522	0.462	0.947	0.846	0.737	0.725	0.789
EKVX	0.897	1.1	0.868	0.378	0.348	0.348	0.184	0.962	0.828	0.777	0.406	0.228	0.256	0.211	0.178	0.371	0.354	0.366	0.221	0.858
COR-L 105	0.789	0.798	0.598	0.429	0.477	0.423	0.399	0.667	0.697	0.734	0.549	0.584	0.508	0.362	0.272	1.19	1.04	1.22	0.885	0.782
NCI-H322M	0.934	0.986	0.979	0.496	0.495	0.448	0.415	0.76	0.838	0.756	0.525	0.861	0.773	0.566	0.418	0.541	0.616	0.584	0.239	0.941
HARA	1.11	1.08	0.979	0.305	0.269	0.187	0.161	0.837	0.97	0.92	0.358	0.454	0.469	0.37	0.244	0.277	0.329	0.239	0.212	0.986
NCI-H2023	0.614	0.686	0.387	0.339	0.33	0.161	0.148	0.521	0.451	0.354	0.134	0.43	0.376	0.275	0.169	0.195	0.228	0.171	0.105	0.481
NCI-H1437	0.852	0.938	0.997	0.309	0.337	0.401	0.216	0.635	0.67	0.71	0.546	0.315	0.321	0.256	0.297	0.317	0.318	0.274	0.215	0.914
BEN	0.906	0.956	0.908	0.442	0.488	0.443	0.439	1.03	1.11	1.02	0.978	0.315	0.286	0.286	0.248	0.809	0.858	0.81	0.546	0.913
LXF-289	0.786	0.819	0.888	0.584	0.588	0.621	0.398	1.1	1.14	1.03	0.631	0.508	0.557	0.452	0.436	0.948	0.874	0.983	0.669	0.841
NCI-H358	0.773	0.638	0.562	0.116	0.165	0.121	0.115	0.627	0.729	0.479	0.271	0.348	0.38	0.207	0.151	0.172	0.165	0.161	0.133	0.563
NCI-H1993	0.842	0.86	0.68	0.573	0.622	0.497	0.37	0.964	0.94	0.763	0.388	0.527	0.504	0.626	0.573	0.608	0.605	0.449	0.442	0.729
LOU-NH91	0.709	0.727	0.715	0.524	0.546	0.563	0.514	0.946	0.908	0.875	0.695	0.773	0.812	0.609	0.461	0.381	0.368	0.4	0.372	0.72
NCI-H1975	0.96	0.866	0.894	0.553	0.544	0.342	0.143	0.764	0.818	0.523	0.248	0.431	0.387	0.25	0.177	0.304	0.301	0.272	0.193	0.855
PC-3 [JPC-3]	0.973	0.98	1.03	0.539	0.494	0.534	0.456	1.24	1.31	1.21	0.754	0.493	0.539	0.487	0.405	1.22	1.24	0.872	0.579	0.946
